Results reported in US20170296491A1, “PHARMACEUTICAL COMPOSITIONS COMPRISING LEVODOPA AMIDE AND USES THEREOF” (priority 2015, published 2017).

How the values were obtained:
[1] = Plasma levels of LDA and LD after intravenous LDA-HCl in mice; assay type: in vivo
Method: (§1) The purpose of this experiment was to determine the plasma levels of LDA and LD following intravenous (IV) and oral (PO) administration of LDA-HCl in CD-1 mice.
(§2) CD-1 mice which were prepared for oral administration had to undergo fasting overnight prior to the dosing. The orally treated mice received food only 2 hour post-dosing. The method used to dose orally was oesophagotubage, and the IV mice were injected via a jugular vein under anesthesia (Isoflurane/O2). LDA-HCl solutions were dissolved in citrate buffer and LD/CD solution was prepared according to International Publication No. WO 2010/134074.
(§3) Blood samples were collected following the oral and IV dosing at pre-determined time points and plasma levels of LDA and LD were analysed by LC-MS-MS.

[2] = peripheral administration; cited from earlier work
[3] = Effect of preparation method and pH on stability of LDA-HCl/CD formulations; assay type: physicochemical; details: 5 days at room temperature (Table 7)
Method: LDA-HCl/CD formulations were prepared by the following methods, and were then tested for stability. Method 1. Carbidopa (CD, powder) [Teva Pharmaceuticals Ltd., Israel] was added to LDA-HCl solution. […] Precipitation occurred at room temperature. Method 2. Liquid CD formulations were prepared by weighting CD [Teva Pharmaceuticals Ltd., Israel] in a suitable container with different L-arginine [Merck] weights to obtain a final concentration of 0.8% CD (wet form, 0.75% dry form) in different molar ratios to arginine (Table 6). CD formulations were prepared as described in the International Publication No. WO 2010/134074. LDA-HCl (powder) was added to CD solutions to attain the final desired concentration of LDA-HCl/CD formulations. Method 3. CD solutions (40 mg/ml, prepared as described in the International Publication No. WO 2010/134074) were mixed with LDA-HCl solutions to attain the final desired concentration of LDA/CD formulations. The LDA-HCl formulations were prepared by dissolving 200, 160 or 120 mg/ml of LDA-HCl in 40 mM citric buffer. The chemical stability of 7 LDA-HCl/CD formulations was evaluated by HPLC analysis at t0 and after 5 days at room temperature. The recovery after 5 days at room temperature was calculated compared to t0 (Table 7).

[4] = Plasma levels of LDA and LD after oral LDA-HCl in mice; assay type: in vivo
Method: as §1, §2, §3

[5] = Plasma pharmacokinetics of LDA and LD after oral LDA-HCl with and without CD in rats; assay type: in vivo; details: oral LDA-HCl 25 mg/kg
Method: The purpose of this experiment was to determine the plasma pharmacokinetics of LDA and LD following oral administration of LD or LDA-HCl with and without CD in Wistar rats.
Wistar rats underwent fasting overnight prior to the dosing and received food only 2 hour post-dosing. The method used to dose orally was via oesophagotubage. Solutions were prepared as described above.

[6] = Stability of LDA 200 mg/ml solution with HCl; assay type: physicochemical
Method: The effect of HCl, representing an inorganic acid, on the stability of LDA solution was evaluated. HCl solution containing 0.3% Tween 80 was added to LDA to obtain a solution having a final LDA concentration of 200 mg/ml and a molar ratio of about 1:1 LDA:HCl. The physical stability of the solution and the chemical stability of LDA were evaluated (Table 13). As shown, LDA (200 mg/ml) is stable for at least 9 days in solution containing HCl at a molar ratio of about 1:1.

[7] = Dissolution and stability of LDA in organic acid solutions; assay type: physicochemical; details: for Chemical stability after 3 days at RT: in % (unit assumed)
Method: The effect of organic acids on the stability of LDA solution was evaluated. Formulations were prepared by adding small aliquots of organic acid solutions, 100-300 μl, to ˜240 mg LDA until full dissolution while pH was monitored. The end point of acid addition was decided by appearance and/or by pH and/or total volume. LDA concentration was determined by HPLC.

[8] = Physical stability of LDA-HCl solutions with or without added CD-Arg formulation; assay type: physicochemical; details: 0.75% CD; CD:Arg 1:1.25; LDA:HCl 1:0.92; pH 5.69; time points not separated
Method: HCl solutions at 3 different concentrations containing 0.3% Tween 80 were added to LDA to obtain solutions having a final LDA concentration of 200 mg/ml and a molar ratio of 1:0.89, 1:0.92 and 1:0.95 LDA:HCl. CD-Arg formulation (CD:Arg molar ratio 1:1.25) was prepared in Tween 80 0.3% and was added gradually under stirring to 4 volumes of each of the 3 LDA-HCl solutions. The physical stability of the solutions was evaluated (Table 15). As shown, the addition of CD to LDA-HCl solutions yielded stable solutions if added to LDA-HCl solutions having a pH>3.8, preferably pH >4.6.

[9] = Solubility of LDA in water in the absence of an acid; assay type: physicochemical; details: water with and without 0.3% Tween-80, absence of an acid; data not shown
From the text: LDA in water with and without 0.3% Tween-80, at concentrations greater than 2.5% (data not shown), is not soluble in the absence of an acid.

Compound: N[C@@H](Cc1ccc(O)c(O)c1)C(=O)O [LD, L-3,4-dihydroxyphenylalanine, reference compound]
- LD plasma level ([1]; IV LDA-HCl 20 mg/kg, 3 h thereafter): below limit of quantification
- share of administered levodopa that enters the brain unaltered [2]: 1-3%

Compound: NC(=O)C(N)Cc1ccc(O)c(O)c1 (stereo not drawn) [LDA, 2-amino-3-(3,4-dihydroxyphenyl)propanamide]
- chemical stability in LDA-HCl/CD formulations [3]: pH-dependent
- LDA plasma level ([1]; IV LDA-HCl 20 mg/kg, 1 h thereafter): below limit of quantification
- metabolism of LDA to LD ([1]; IV administration of LDA-HCl 20 mg/kg): rapidly metabolized to LD
- half-life of LDA compared with LD ([1]; IV and oral administration of LDA-HCl): shorter than that of LD
- bioavailability ([4]; administered orally): low
- metabolism of LDA to LD ([4]; oral administration of LDA-HCl 20 mg/kg): rapidly metabolized to LD
- metabolism of LDA to LD [5]: rapidly metabolized to LD
- time stable in solution ([6]; HCl at a molar ratio of about 1:1): at least 9 days
- Chemical stability of LDA 9 days ([6]; LDA:HCl molar ratio 1:0.94, pH 5.81, 0.3% Tween 80, in % (unit assumed)): 100.1
- Chemical stability after 3 days at RT ([7]; Acetic acid, LDA:acid 1:1.2, pH 5.0): 98.4
- Chemical stability after 3 days at RT ([7]; Citric acid, LDA:acid 1:08, pH 2.8): 99.3
- time physically and chemically stable at RT ([7]; LDA dissolved in organic acid solutions): at least 3 days
- Chemical stability after 3 days at RT ([7]; Succinic acid, LDA:acid 1:0.5, pH 5.7): 99.1
- Chemical stability after 3 days at RT ([7]; Tartaric acid, LDA:acid 1:0.6, pH 3.8): 100.5
- LDA ([7]; dissolved with Acetic acid, pH 5.0): 199 mg/mL
- LDA ([7]; dissolved with Citric acid, pH 2.8): 236 mg/mL
- LDA ([7]; dissolved with Citric acid, pH 5.6): 175 mg/mL
- LDA ([7]; dissolved with Glutamic acid, pH 5.8): 128 mg/mL
- LDA ([7]; dissolved with Succinic acid, pH 5.7): 194 mg/mL
- LDA ([7]; dissolved with Tartaric acid, pH 3.8): 334 mg/mL
- Precipitations [8]: Slight
- soluble concentration in water [9]: ≤ 2.5%
